Experimental findings from patent US11084781B2, “Diarylureas as CB1 allosteric modulators” (Research Triangle Institute, priority 2017, dated 2021) are described below.

Molecules are shown by their SMILES.

For orientation: IC50 means the point on the concentration scale where inhibition reaches its midpoint. One may read the half-life as the time needed for the level to fall by half in the phase considered. Lower therefore signals rapid decline.

Data set [1] deals with T1, CB1 receptor (Mus musculus, UniProt P47746).
T1 construct: from tissue; host or cells: cerebellar membranes of adult male CD-1 mice
T1 sequence (P47746 whole entry): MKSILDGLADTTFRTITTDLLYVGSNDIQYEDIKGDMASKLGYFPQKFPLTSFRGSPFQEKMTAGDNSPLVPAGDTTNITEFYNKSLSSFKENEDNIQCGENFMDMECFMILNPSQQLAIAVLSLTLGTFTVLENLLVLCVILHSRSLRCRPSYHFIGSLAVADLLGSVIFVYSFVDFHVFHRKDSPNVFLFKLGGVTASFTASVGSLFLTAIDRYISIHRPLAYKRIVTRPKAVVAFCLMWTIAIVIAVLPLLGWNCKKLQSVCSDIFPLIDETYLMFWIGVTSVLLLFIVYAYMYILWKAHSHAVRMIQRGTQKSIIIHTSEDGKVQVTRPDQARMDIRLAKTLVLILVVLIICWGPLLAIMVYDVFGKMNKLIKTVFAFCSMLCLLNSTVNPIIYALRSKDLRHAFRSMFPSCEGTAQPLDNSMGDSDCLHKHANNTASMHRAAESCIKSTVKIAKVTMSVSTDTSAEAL
The data set can be described thus: [35S]GTP-γ-S binding assay in mouse cerebellar membranes, CP55,940-stimulated. In kind it is biochemical. The note with it: CP55,940 (100 nM) stimulation, mean (95% confidence interval).
Protocol: Cerebella from adult male CD-1 mice were dissected on ice, snap frozen, and stored at −80° C. until the day of the experiment. Cerebella were homogenized by polytron in membrane buffer (50 mM Tris, 3 mM MgCl2, 0.2 mM EGTA, 100 mM NaCl, pH 7.4) on ice, centrifuged for 10 min at 40,000×g at 4° C. The supernatant was discarded and the pellet was suspended in membrane buffer, homogenized, and centrifuged again for 10 min at 40,000×g. The pellet was resuspended in membrane buffer and protein quantified by Bradford method.
CB1 receptor agonist CP55,940 was employed as the agonist probe.

Data set [2] deals with T2, human CB1 receptor (Homo sapiens, UniProt P21554).
T2 construct: host or cells: CHO-RD-HGA16 cells (CHO cells overexpressing promiscuous Galpha16)
T2 sequence (P21554 whole entry): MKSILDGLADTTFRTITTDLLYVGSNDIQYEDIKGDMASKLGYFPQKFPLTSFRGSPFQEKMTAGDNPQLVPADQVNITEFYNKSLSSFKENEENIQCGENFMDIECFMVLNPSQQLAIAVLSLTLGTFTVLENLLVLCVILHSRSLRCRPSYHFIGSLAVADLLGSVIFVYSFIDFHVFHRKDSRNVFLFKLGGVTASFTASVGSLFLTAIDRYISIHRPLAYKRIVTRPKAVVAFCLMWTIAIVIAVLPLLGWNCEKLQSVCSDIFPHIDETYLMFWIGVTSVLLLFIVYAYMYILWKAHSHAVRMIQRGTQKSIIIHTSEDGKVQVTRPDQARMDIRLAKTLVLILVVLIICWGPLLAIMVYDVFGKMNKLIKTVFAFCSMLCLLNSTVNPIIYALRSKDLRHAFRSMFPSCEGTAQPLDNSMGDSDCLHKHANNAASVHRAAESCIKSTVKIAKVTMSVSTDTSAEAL
The data set can be described thus: CB1 calcium mobilization assay (antagonist mode, against EC80 of CP55,940). In kind it is cell-based. The note with it: Table 1; against EC80 (100 nM) of CP55,940; mean ± S.E.M.; read-out: CB1 calcium assay IC50. On the technique in general: Calcium assays in cells follow changes in intracellular calcium, usually with a dye or a luminescent sensor.
Protocol: CHO-RD-HGA16 cells (Molecular Devices, CA) stably expressing the human CB1 receptor were plated into 96-well black-walled assay plates at 25,000 cells/well in 100 μL of Ham's F12 (supplemented with 10% fetal bovine serum, 100 units of penicillin/streptomycin, and 100 μg/mL Normocin) and incubated overnight at 37° C., 5% CO2. Calcium 5 dye (Molecular Devices, CA) was reconstituted according to the manufacturer's instructions. The reconstituted dye was diluted 1:40 in prewarmed (37° C.) assay buffer (1×HBSS, 20 mM HEPES, 2.5 mM probenecid, pH 7.4 at 37° C.). Growth medium was removed, and the cells were gently washed with 100 μL of prewarmed (37° C.) assay buffer. […] After the pretreatment incubation period, the plate was read with a FLIPR Tetra (Molecular Devices, CA). […] Relative fluorescence units (RFU) were plotted against the log of compound concentrations. Data were fit to a three-parameter logistic curve to generate IC50 values (GraphPad Prism 6.0, CA). […] Test compound RFUs were compared to the CP55,940 Emax RFUs to generate % Emax values.
In these assays, CHO cells that overexpress the promiscuous Gα16 protein were engineered to stably express the CB1 or CB2 receptor. Compounds were evaluated for their ability to decrease the mobilization of intracellular calcium levels stimulated by CP55,940.

The test system of data set [3] is cocaine-seeking behavior in rats. The data set can be described thus: Reinstatement of extinguished cocaine-seeking behavior. In kind it is in vivo, rat. The protocol:
Animals: Adult male Sprague-Dawley rats (Harlan, Indianapolis, Ind.) weighing 280-300 g were used in the study. Animals were housed individually on a 12/12 hr light/dark cycle (behavioral experiments were conducted during the light period) with free access to water and food except during experimental sessions. Animals were maintained and experiments conducted in accordance with the Institutional Animal Care and Use Committee, University at Buffalo, and with the 2011 Guide for the Care and Use of Laboratory Animals (Institute of Laboratory Animal Resources on Life Sciences, National Research Council, National Academy of Sciences, Washington D.C.).
Drug self-administration, extinction and reinstatement: The reinstatement procedure was described in detail elsewhere^37, 38. Briefly, rats were surgically implanted with a chronic indwelling jugular catheter. After one-week recovery, rats were trained to press the active lever (left lever) for infusion of cocaine (0.75 mg/kg/inf) under a fixed ratio [FR] schedule (starting FR=1, which was increased to FR 5 within 5 training sessions) schedule during daily 2-hr sessions for 14 days. Reinforcer deliveries were accompanied by the presentation of a stimulus light over the active lever followed by a 30-s time-out period during which lever presses had no programmed consequence. Following acquisition of cocaine self-administration, extinction of drug-seeking behavior took place during 2-hr daily sessions in which lever pressing produced no consequence. All other conditions remained unchanged. After 7 days of extinction, all rats reached the extinction criteria (total responses less than 20% of the training sessions).
Drug-induced reinstatement test was conducted on the day following the last extinction session. Rats were pretreated with vehicle, compounds 2 (15, 30 mg/kg) or 34 (10 mg/kg) 10 min prior to a priming injection of cocaine (10 mg/kg, i.p.) administered immediately before the start of the reinstatement session.
Data analyses: Data are expressed as mean±S.E.M. Differences in active lever responding between the last extinction session and reinstatement session were determined with paired t tests (within subjects comparison). The effects of compounds 2 on reinstatement were analyzed by a one-way analysis of variance (ANOVA) followed by post hoc Bonferroni's test (between subjects comparison). The effects of compounds 34 on reinstatement was analyzed by Student's t test. P<0.05 was considered statistically significant.

Data set [4] in a line: Metabolic stability in rat liver microsomes. In kind it is in vitro ADME. The note with it: pH 7.4, 0.5 mg/mL, NADPH, 37° C., mean ± S.E.M. The protocol:
Metabolic stability assessment was performed by Paraza Pharma Inc. (Montreal, Canada).
Compounds were incubated with rat liver microsomes at 37° C. for a total of 45 minutes. The reaction was performed at pH 7.4 in 100 mM potassium phosphate buffer containing 0.5 mg/mL of rat liver microsomal protein. Phase I metabolism was assessed by adding NADPH to a final concentration of 1 mM and collecting samples at time points 0, 5, 15, 30 and 45 minutes. All collected samples were quenched 1:1 with ice-cold stop solution (1 μM labetalol and 1 μM glyburide in acetonitrile), and centrifuged to remove precipitated protein. Resulting supernatants were further diluted 1:4 with acetonitrile:water (1:1). Samples were analyzed by LC/MS/MS and calculations for half-life, and in-vitro clearance were accomplished using Microsoft Excel (2007).
(Liver microsomes are vesicles of endoplasmic reticulum, rich in cytochrome P450 enzymes.)

The target of data set [5] is T2, human CB1 receptor. The data set can be described thus: CB1 calcium mobilization assay, agonist screen. It counts as cell-based. As to conditions: Table 1; 10,000 nM final concentration; mean ± SD.
Protocol: CHO-RD-HGA16 cells (Molecular Devices, CA) stably expressing the human CB1 receptor were plated into 96-well black-walled assay plates at 25,000 cells/well in 100 μL of Ham's F12 (supplemented with 10% fetal bovine serum, 100 units of penicillin/streptomycin, and 100 μg/mL Normocin) and incubated overnight at 37° C., 5% CO2. Calcium 5 dye (Molecular Devices, CA) was reconstituted according to the manufacturer's instructions. The reconstituted dye was diluted 1:40 in prewarmed (37° C.) assay buffer (1×HBSS, 20 mM HEPES, 2.5 mM probenecid, pH 7.4 at 37° C.). Growth medium was removed, and the cells were gently washed with 100 μL of prewarmed (37° C.) assay buffer. The cells were incubated for 45 min at 37° C., 5% CO2 in 200 μL of the diluted Calcium 5 dye solution. […] Serial dilutions of the test compounds were prepared at 10× the desired final concentration in 2.25% BSA/4.5% DMSO/4.5% EtOH/assay buffer. After the dye loading incubation period, the cells were pretreated with 25 μL of the test compound serial dilutions and incubated for 15 min at 37° C. After the pretreatment incubation period, the plate was read with a FLIPR Tetra (Molecular Devices, CA). Calcium-mediated changes in fluorescence were monitored every 1 s over a 90 s time period, with the Tetra adding 25 μL of the CP55,940 EC80 concentration at the 10s time point (excitation/emission: 485/525 nm). Relative fluorescence units (RFU) were plotted against the log of compound concentrations. Data were fit to a three-parameter logistic curve to generate IC50 values (GraphPad Prism 6.0, CA). […] For agonist screens, the above procedure was followed except that cells were pretreated with 2.25% BSA/4.5% DMSO/4.5% EtOH/assay buffer and the Tetra added single concentration dilutions of the test compounds prepared at 10× the desired final concentration in 0.25% BSA/0.5% DMSO/0.5% EtOH/assay buffer. Test compound RFUs were compared to the CP55,940 Emax RFUs to generate % Emax values.

As for `O=C(Nc1ccc(Cl)cc1)Nc1cccc(-c2ccc(F)cc2)c1` [Compound 34, 3-(4-Chlorophenyl)-1-[3-(4-fluorophenyl)phenyl]urea], the IC50 in data set [1] amounted to 0.151 µM; in data set [2], 0.023 ± 0.002 µM. The “Attenuation of cocaine-induced reinstatement of cocaine-seeking behavior” value in data set [3] (dose 10 mg/kg, cocaine prime 10 mg/kg i.p.) is given as “produced the same degree of attenuation as that of 30 mg/kg of B”; in data set [3] (pretreatment 10 min prior to cocaine prime 10 mg/kg i.p.), “attenuated the resumption of extinguished cocaine-seeking behavior”. In addition, the half-life in data set [4] is above 5 h. Further, the microsomal CLint in data set [4] (read-out: Clearance) is below 4.6 µL/min/mg. For the same molecule, the “CB1 calcium assay Agonist screen (% CP55, 940 Emax)” value in data set [5] is 8.8 ± 1.1 % CP55, 940 Emax.
